Measurements: US8609690B2, “Aryl- and heteroarylcarbonyl derivatives of substituted nortropanes, medicaments containing such compounds and their use” (Boehringer Ingelheim International GmbH, priority 2008, dated 2013)

Target: T1, 11β-HSD 1 (Homo sapiens, UniProt P28845)
T1 construct: detecting cortisol generated from cortisterone by human liver microsomes; from tissue; host or cells: human liver microsomes
Assay: In vitro inhibition of 11β-HSD 1, HTRF detection of cortisol generated by human liver microsomes
Type: biochemical
Conditions: 1 μM test compound, 100% indicates no inhibition, zero or below zero indicates complete inhibition (relative to carbenoxolone)
Experimental: Briefly, compounds were incubated for 1 hour at 37° C. in Tris buffer (20 mM tris, 5 mM EDTA, pH 6.0) containing NADPH (200 μM) and cortisone (80 nM). Cortisol generated in the reaction is then detected with a competitive immunoassay, involving two HTRF conjugates: cortisol linked to XL665 and anti-cortisol antibody labeled with Europium cryptate. The incubation period for detection reaction was typically 2 hours. The amount of cortisol is determined by reading the time-resolved fluorescence of the wells (Ex 320/75 nm; Em 615/8.5 nm and 665/7.5 nm). The ratio of the two emission signals is then calculated (Em665*10000/Em615). […] Each assay also contained a calibration curve with cortisol to transform the fluorescent data into cortisol concentrations. Percent inhibition of each compound was determined relative to the carbenoxolone signal. In Table 2 the 11β-HSD 1 inhibitory activities at 1 μM concentration of test compound, determined as described above, of the compounds listed in Table 3 are compiled, wherein 100% indicates no inhibition and a value of zero or below zero indicates complete inhibition.

T1 sequence (P28845 whole entry): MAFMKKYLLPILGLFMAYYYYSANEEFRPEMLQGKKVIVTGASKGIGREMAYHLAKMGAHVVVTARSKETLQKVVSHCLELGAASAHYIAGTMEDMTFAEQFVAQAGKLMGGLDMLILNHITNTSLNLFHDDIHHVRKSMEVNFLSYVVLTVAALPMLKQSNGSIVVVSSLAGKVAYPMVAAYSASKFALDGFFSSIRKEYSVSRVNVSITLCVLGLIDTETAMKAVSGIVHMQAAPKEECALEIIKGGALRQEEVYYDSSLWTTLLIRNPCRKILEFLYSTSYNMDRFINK

| Compound | Inhibitory activity on 11β-HSD 1, % CTL | Inhibitory activity on 11β-HSD 1, % CTL (1 µM) |
| --- | --- | --- |
| O=C(c1ccc2[nH]cnc2c1)N1[C@@H]2CC[C@H]1C[C@@H](c1ccc(F)cc1)C2 [Example 1, endo-(1H-Benzoimidazol-5-yl)-[3-(4-fluoro-phenyl)-8-aza-bicyclo[3.2.1]oct-8-yl]-methanone] | −18 % CTL |  |
| NC(=O)c1ccc(C(=O)N2[C@@H]3CC[C@H]2C[C@@H](c2ccc(F)cc2)C3)cc1 [Example 2, endo-4-[3-(4-Fluoro-phenyl)-8-aza-bicyclo[3.2.1]octane-8-carbonyl]-benzamide] |  | −27 % CTL |
| O=C(c1ccc2c(c1)OCCO2)N1[C@@H]2CC[C@H]1C[C@@H](c1ccc(F)cc1)C2 [Example 3, endo-(2,3-Dihydro-benzo[1,4]dioxin-6-yl)-[3-(4-fluoro-phenyl)-8-aza-bicyclo[3.2.1]oct-8-yl]-methanone] | −32 % CTL |  |
| Cc1cc(C(F)F)n2ncc(C(=O)N3[C@@H]4CC[C@H]3C[C@@H](c3ccc(F)cc3)C4)c2n1 [Example 4, endo-(7-Difluoromethyl-5-methyl-pyrazolo[1,5-a]pyrimidin-3-yl)-[3-(4-fluoro-phenyl)-8-aza-bicyclo[3.2.1]oct-8-yl]-methanone] | 87 % CTL |  |
| O=C(c1n[nH]c2c1CCC2)N1[C@@H]2CC[C@H]1C[C@@H](c1ccc(F)cc1)C2 [Example 6, endo-[3-(4-Fluoro-phenyl)-8-aza-bicyclo[3.2.1]oct-8-yl]-(1,4,5,6-tetrahydro-cyclopentapyrazol-3-yl)-methanone] | 88 % CTL |  |
| O=C(c1cccs1)N1[C@@H]2CC[C@H]1C[C@@H](c1ccc(F)cc1)C2 [Example 7, endo-[3-(4-Fluoro-phenyl)-8-aza-bicyclo[3.2.1]oct-8-yl]-thiophen-2-yl-methanone] | 68 % CTL |  |
| Cc1cc(=O)n2ncc(C(=O)N3[C@@H]4CC[C@H]3C[C@@H](c3ccc(F)cc3)C4)c2[nH]1 [Example 8, endo-3-[3-(4-Fluoro-phenyl)-8-aza-bicyclo[3.2.1]octane-8-carbonyl]-5-methyl-4H-pyrazolo[1,5-a]pyrimidin-7-one] | 87 % CTL |  |
| COC(=O)c1ccc(C(=O)N2[C@@H]3CC[C@H]2C[C@@H](c2ccc(C)cc2)C3)s1 [Example 9, endo-5-(3-p-Tolyl-8-aza-bicyclo[3.2.1]octane-8-carbonyl)-thiophene-2-carboxylic acid methyl ester] | 87 % CTL |  |
| CC(C)(C)c1cc(C(=O)N2[C@@H]3CC[C@H]2C[C@@H](c2ccc(F)cc2)C3)[nH]n1 [Example 11, endo-(5-tert-Butyl-2H-pyrazol-3-yl)-[3-(4-fluoro-phenyl)-8-aza-bicyclo[3.2.1]oct-8-yl]-methanone] | 82 % CTL |  |
| O=C(c1cc(F)cc(F)c1)N1[C@@H]2CC[C@H]1C[C@@H](c1ccc(F)cc1)C2 [Example 12, endo-(3,5-Difluoro-phenyl)-[3-(4-fluoro-phenyl)-8-aza-bicyclo[3.2.1]oct-8-yl]-methanone] | 85 % CTL |  |
| Cc1ccc([C@H]2C[C@H]3CC[C@@H](C2)N3C(=O)c2cscn2)cc1 [Example 13, endo-Thiazol-4-yl-(3-p-tolyl-8-aza-bicyclo[3.2.1]oct-8-yl)-methanone] | 62 % CTL |  |
| Cc1ccc([C@H]2C[C@H]3CC[C@@H](C2)N3C(=O)c2cccs2)cc1 [Example 15, endo-Thiophen-2-yl-(3-p-tolyl-8-aza-bicyclo[3.2.1]oct-8-yl)-methanone] | 56 % CTL |  |
| Cc1ccc([C@H]2C[C@H]3CC[C@@H](C2)N3C(=O)c2ccco2)cc1 [Example 17, endo-Furan-2-yl-(3-p-tolyl-8-aza-bicyclo[3.2.1]oct-8-yl)-methanone] | 93 % CTL |  |
| O=C(c1ccccn1)N1[C@@H]2CC[C@H]1C[C@@H](c1ccc(F)cc1)C2 [Example 18, endo-[3-(4-Fluoro-phenyl)-8-aza-bicyclo[3.2.1]oct-8-yl]-pyridin-2-yl-methanone] |  | 97 % CTL |
| CS(=O)(=O)N1CCc2cc(C(=O)N3[C@@H]4CC[C@H]3C[C@@H](c3ccc(F)cc3)C4)ccc21 [Example 20, endo-[3-(4-Fluoro-phenyl)-8-aza-bicyclo[3.2.1]oct-8-yl]-(1-methanesulfonyl-2,3-dihydro-1H-indol-5-yl)-methanone] | 87 % CTL |  |
| O=C(c1n[nH]c2c1CCCC2)N1[C@@H]2CC[C@H]1C[C@@H](c1ccc(F)cc1)C2 [Example 23, endo-[3-(4-Fluoro-phenyl)-8-aza-bicyclo[3.2.1]oct-8-yl]-(4,5,6,7-tetrahydro-1H-indazol-3-yl)-methanone] | 83 % CTL |  |

| Compound | Inhibitory activity on 11β-HSD 1, % CTL | Inhibitory activity on 11β-HSD 1, % CTL (1 µM) |
| --- | --- | --- |
| CC(C)CN1Cc2cccc(C(=O)N3[C@@H]4CC[C@H]3C[C@@H](c3ccc(F)cc3)C4)c2C1=O [Example 29, endo-7-[3-(4-Fluoro-phenyl)-8-aza-bicyclo[3.2.1]octane-8-carbonyl]-2-isobutyl-2,3-dihydro-isoindol-1-one] | 97 % CTL |  |
| O=C(c1nsc(Cl)c1Cl)N1[C@@H]2CC[C@H]1C[C@@H](c1ccc(F)cc1)C2 [Example 30, endo-(4,5-Dichloro-isothiazol-3-yl)-[3-(4-fluoro-phenyl)-8-aza-bicyclo[3.2.1]oct-8-yl]-methanone] | 88 % CTL |  |
| O=C(c1ccc(OC2CSC2)cc1)N1[C@@H]2CC[C@H]1C[C@@H](c1ccc(F)cc1)C2 [Example 31, endo-[3-(4-Fluoro-phenyl)-8-aza-bicyclo[3.2.1]oct-8-yl]-[4-(thietan-3-yloxy)-phenyl]-methanone] | 86 % CTL |  |
| Cc1ccc([C@H]2C[C@H]3CC[C@@H](C2)N3C(=O)c2ccc(OC3CSC3)cc2)cc1 [Example 32, endo-[4-(Thietan-3-yloxy)-phenyl]-(3-p-tolyl-8-aza-bicyclo[3.2.1]oct-8-yl)-methanone] | 94 % CTL |  |
| O=C(c1nccc2ccccc12)N1[C@@H]2CC[C@H]1C[C@@H](c1ccc(F)cc1)C2 [Example 33, endo-[3-(4-Fluoro-phenyl)-8-aza-bicyclo[3.2.1]oct-8-yl]-isoquinolin-1-yl-methanone] | 88 % CTL |  |
| O=C(c1ccco1)N1[C@@H]2CC[C@H]1C[C@@H](c1ccc(F)cc1)C2 [Example 34, endo-[3-(4-Fluoro-phenyl)-8-aza-bicyclo[3.2.1]oct-8-yl]-furan-2-yl-methanone] | 75 % CTL |  |
| O=C(c1cnn2cccnc12)N1[C@@H]2CC[C@H]1C[C@@H](c1ccc(F)cc1)C2 [Example 35, endo-[3-(4-Fluoro-phenyl)-8-aza-bicyclo[3.2.1]oct-8-yl]-pyrazolo[1,5-a]pyrimidin-3-yl-methanone] | 62 % CTL |  |
| NC(=O)c1ccc(C(=O)N2[C@@H]3CC[C@H]2C[C@@H](c2ccc(F)cc2)C3)c(F)c1 [Example 36, endo-3-Fluoro-4-[3-(4-fluoro-phenyl)-8-aza-bicyclo[3.2.1]octane-8-carbonyl]-benzamide] | −28 % CTL |  |
| O=C(c1cccc2ncccc12)N1[C@@H]2CC[C@H]1C[C@@H](c1ccc(F)cc1)C2 [Example 37, endo-[3-(4-Fluoro-phenyl)-8-aza-bicyclo[3.2.1]oct-8-yl]-quinolin-5-yl-methanone] | 39 % CTL |  |
| CCn1ncc(C(=O)N2[C@@H]3CC[C@H]2C[C@@H](c2ccc(C)cc2)C3)c1C [Example 38, endo-(1-Ethyl-5-methyl-1H-pyrazol-4-yl)-(3-p-tolyl-8-aza-bicyclo[3.2.1]oct-8-yl)-methanone] | 12 % CTL |  |
| Cn1c(=O)n(C)c2cc(C(=O)N3[C@@H]4CC[C@H]3C[C@@H](c3ccc(F)cc3)C4)ccc21 [Example 39, endo-5-[3-(4-Fluoro-phenyl)-8-aza-bicyclo[3.2.1]octane-8-carbonyl]-1,3-dimethyl-1,3-dihydro-benzoimidazol-2-one] | 43 % CTL |  |
| O=C(c1cccc(N2CCCCS2(=O)=O)c1)N1C2CCC1CC(c1ccc(F)cc1)C2 (stereo not drawn) [Example 40, endo-[3-(1,1-Dioxo-1lambda*6*-[1,2]thiazinan-2-yl)-phenyl-[3-(4-fluoro-phenyl)-8-aza-bicyclo[3.2.1]oct-8-yl]-methanone] | 98 % CTL |  |
| Cc1cc(C(F)(F)F)n2nc(C(=O)N3[C@@H]4CC[C@H]3C[C@@H](c3ccc(F)cc3)C4)cc2n1 [Example 42, endo-[3-(4-Fluoro-phenyl)-8-aza-bicyclo[3.2.1]oct-8-yl]-(5-methyl-7-trifluoromethyl-pyrazolo[1,5-a]pyrimidin-2-yl)-methanone] | 93 % CTL |  |
| O=C(c1cscn1)N1[C@@H]2CC[C@H]1C[C@@H](c1ccc(F)cc1)C2 [Example 43, endo-[3-(4-Fluoro-phenyl)-8-aza-bicyclo[3.2.1]oct-8-yl]-thiazol-4-yl-methanone] | 95 % CTL |  |
| COc1cc(C(=O)N2[C@@H]3CC[C@H]2C[C@@H](c2ccc(F)cc2)C3)cc(OC)c1OC [Example 44, endo-[3-(4-Fluoro-phenyl)-8-aza-bicyclo[3.2.1]oct-8-yl]-(3,4,5-trimethoxy-phenyl)-methanone] | 57 % CTL |  |
